Results taken from patent publication US20220389465A1, “METHODS OF REDUCING BIURET IN UREA COMPOSITIONS” (Regents of the University of Minnesota, priority 2019, published 2022).
Blank lines part the entries; values can stand above or below the compound they belong to.

What was measured:
cyanuric acid hydrolase = settings: no turnover observed; cited from earlier work
biuret hydrolase [1] = test: BiuH activity in the presence of urea (Berthelot ammonia assay); type: biochemical, Herbaspirillum sp. BH-1
Experimental: (§1) Analytical methods: The colorimetric Berthelot ammonia assay was used to measure residual ammonium (NH4^+) present in the urea and to detect NH4^+ released from the residual biuret in urea by addition of biuret hydrolase (BiuH) enzyme. The assay was conducted by adding 0.100 ml of sample directly to 0.300 ml of solution A (10 g/L phenol and 0.050 g/L sodium nitroprusside), followed by addition of 0.400 ml of solution B (5 g/L sodium hydroxide and 8.25 ml/L of commercial chlorine bleach or 5.25% sodium hypochlorite). The reactions were pulsed on a vortex mixer, incubated at 37° C. for 60 min, and then absorbance at 630 nm was read with a Beckman-Coulter DU-640 spectrophotometer. Quantification of NH4^+ was done via a standard curve prepared from ammonium chloride (NH4Cl) (Sigma-Aldrich, St. Louis, Mo.) standards at 5-1000 μM in deionized reverse osmosis (DI/RO) water that were analyzed with the Berthelot reaction.
BiuH activity in the presence of urea: Biuret degradation reactions were performed by adding 10-20 μg purified BiuH to 0.5 ml of urea standards (0.5-8 M) in DI/RO water in 1.7 ml microcentrifuge tubes. […] Total ammonium (NH4^+) was quantified with the Berthelot assay. Residual biuret present in urea was determined by treating unspiked urea standards with BiuH and subtracting the amount of residual NH4^+ detected above. […]

biuret hydrolase [2] = target: T1, biuret hydrolase (Rhizobium johnstonii, UniProt Q1M7F4); test: Inhibition of biuret hydrolase by urea, kinetic constants; type: biochemical
T1 construct: six-histidine tag (C); made in house; host or cells: Escherichia coli BL21(DE3)

[3] = target: T2, triuret hydrolase (TrtA) from Herbaspirillum sp. BH-1 (Herbaspirillum sp. BH-1, UniProt A0A2N6JFX7); test: Kinetic constants of triuret hydrolase (Km for triuret, inhibition by urea, FIG. 16B); type: biochemical; settings: urea concentrations up to 50 mM
T2 sequence (A0A2N6JFX7 1-227): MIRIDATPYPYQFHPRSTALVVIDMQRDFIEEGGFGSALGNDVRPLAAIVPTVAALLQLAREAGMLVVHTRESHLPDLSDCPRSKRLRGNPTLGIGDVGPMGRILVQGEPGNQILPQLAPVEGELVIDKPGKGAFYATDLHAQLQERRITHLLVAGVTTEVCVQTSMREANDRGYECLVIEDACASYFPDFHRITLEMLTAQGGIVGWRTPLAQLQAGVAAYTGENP

[4] = system: native biuret hydrolase (BiuH) from Herbaspirillum sp. BH-1, six-histidine tag; test: BiuH activity in the presence of urea (Berthelot ammonia assay, FIGS. 4, 5A-5B); type: biochemical
Experimental: FIG. 4. Evaluation of urea inhibition of biuret hydrolase and various urea concentrations. Biuret was added at 0.8 mM concentration and 30 microgram enzyme per ml incubated for 30 minutes.
as §1
Enzyme purification: A synthetic gene encoding the native biuret hydrolase from Herbaspirillum sp. BH-1 was expressed with a C- or N-terminal six-histidine tag from an isopropyl-β-D-thiogalactoside (IPTG)-inducible promoter T7 promoter on a plasmid in Eschrichia coli BL2(DE3). Cells were harvested by centrifugation and lysed with a French pressure cell (two passages at 124 MPa) in a buffer of 20 mM sodium phosphate (pH 7.4), 500 mM sodium chloride, 10 mM imidazole, and 10 mM 2-mercaptoethanol. The resulting crude lysate was centrifuged at 19,000×g for 60 min and the supernatant was passed through a […] filter. An AKTA FPLC system (GE Healthcare, Chicago, Ill.) was used to inject the filtrate (cleared crude lysate) onto a HisTrap affinity column (GE Healthcare) charged with Ni^2+ ions. Bound BiuH was eluted from the column with a linear gradient of 20-250 mM imidazole in the same buffer. […] Total protein concentration was determined with the BioRad (Hercules, Calif.) Bradford protein assay reagent and BiuH purity was verified by SDS-PAGE. […]
BiuH activity in the presence of urea: Biuret degradation reactions were performed by adding 10-20 μg purified BiuH to 0.5 ml of urea standards (0.5-8 M) in DI/RO water in 1.7 ml microcentrifuge tubes. […] Total ammonium (NH4^+) was quantified with the Berthelot assay. Residual biuret present in urea was determined by treating unspiked urea standards with BiuH and subtracting the amount of residual NH4^+ detected above. […] Net NH4^+ released from the spiked biuret by BiuH was calculated by subtracting the amounts of residual biuret and NH4^+ detected in the control treatments. […]

T1 sequence (Q1M7F4 whole entry): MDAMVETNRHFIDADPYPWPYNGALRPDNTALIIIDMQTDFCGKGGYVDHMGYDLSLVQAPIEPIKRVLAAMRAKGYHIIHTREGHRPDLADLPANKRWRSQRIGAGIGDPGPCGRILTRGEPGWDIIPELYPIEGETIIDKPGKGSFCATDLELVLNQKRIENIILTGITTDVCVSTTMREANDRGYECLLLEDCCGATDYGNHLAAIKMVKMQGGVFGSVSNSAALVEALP

Km (triuret hydrolase; read-out: Km for triuret): 20 to 21 µM
SMILES: NC(=O)NC(=O)NC(N)=O [triuret]

SMILES: O=C1CC(=O)NC(=O)N1 [barbituric acid]
effect on cyanuric acid hydrolase (cyanuric acid hydrolase): inhibitor

SMILES: NC(N)=O [urea]
inhibition of biuret hydrolase by urea (biuret hydrolase [1]; 4M urea, NH4+ released from residual biuret in 0.5-8.0 M Fluka urea): slight inhibition
inhibition of biuret hydrolase by urea (biuret hydrolase [1]; urea up to 0.5M, biuret 0.8 mM, 30 microgram enzyme per ml, 30 minutes): not inhibited
Ki (biuret hydrolase [2]): 34 mM
inhibition by urea [3]: no inhibition was measurable
inhibition of triuret hydrolase by urea (triuret hydrolase; urea concentrations up to 50 mM): no inhibition
inhibition by urea ([4]; 4M urea, residual biuret in Fluka urea): slight inhibition
inhibition by urea ([4]; 10,000 fold higher concentration of urea than biuret): not inhibited
inhibition by urea ([4]; urea concentrations higher than 4M (up to 8.0 M), residual biuret in Fluka urea): stronger inhibition
inhibition by urea ([4]; urea up to 0.5M, 0.8 mM biuret, 30 microgram enzyme per ml, 30 minutes): not inhibited
